Measurements taken from patent publication US20140121231A1, “PYRANOPYRIDONE INHIBITORS OF TANKYRASE” (Hoffmann-La Roche, Inc., priority 2012, published 2014).

How the values were obtained:
[1] = target: T1, PARP1 (His6-PARP1, full length) (Homo sapiens, UniProt P09874); assay: TR-FRET Binding Assay (Example 71), PARP1; settings: TR-FRET assay of Example 71 with His6-PARP1
T1 construct: His6-PARP1 (full length) can be substituted for His6-TNKS 1
Procedure: (§1) μHTS-TNKS-IWR2 TR-FRET Binding Assay (10 μL/well in BD1536-well plate, a single point)
Tankyrase 1 (TNKS1): 184.3 μM=5.2 mg/mL His6-TNKS1, MW=28.2 KDa (construct: 1088-1327, 1266M) in 20 mM Tris pH 8, 150 mM NaCl, 10% glycerol, and 0.5 mM TCEP. Alternatively, His6-tankyrase 2 (construct: 934-1166) (His6-TNKS2) or His6-PARP1 (full length) can be substituted for His6-TNKS 1.
(§2) Assay buffer 1a (AB1a) for TNKS dilution: 50 mM Tris, pH 7.4, 100 mM sodium chloride solution, 1 mM magnesium chloride solution, 1 mM DL-dithiothreitol solution, 0.2 mg/mL bovine serum albumin solution, 0.025% NP-40. Assay buffer 1b (AB 1b) for Biotin-IWR2 dilution: 50 mM Tris, pH 7.4, 100 mM sodium chloride solution, 1 mM magnesium chloride solution, 1 mM DL-dithiothreitol solution, 0.2 mg/mL bovine serum albumin solution, 0.05% NP-40 Assay buffer 1c (AB 1c) for compound dilution: 50 mM Tris, pH 7.4, 100 mM sodium chloride solution, 1 mM magnesium chloride solution, 1 mM DL-dithiothreitol solution, 0.2 mg/mL bovine serum albumin solution Assay buffer 2 (AB2) for Eu/APC: 50 mM Tris, pH 7.4, 100 mM sodium chloride solution, 1 mM magnesium chloride solution, 0.2 mg/mL bovine serum albumin solution
Prepare Biotinylated IWR2 stock solution (3.33× stock) for TOTL and compound wells: 200 nM Biotin-IWR2 in 5% DMSO/AB1b buffer
Prepare BLANK well stock solution: 5% DMSO/AB1b buffer Prepare POSITIVE CONTROL well stock solution (3.33× stock): 200 nM XAV939 in 200 nM Biotin-IWR2/5% DMSO/AB1b buffer Prepare TNKS1 stock solution (5× stock): 300 nM TNKS in AB1a buffer. (Alternatively, use TNKS2 or PARP1 stock solutions.) Prepare Eu/APC stock solution (5× stock): 3.5 nM Eu-SA/50 nM APC-His6Ab in AB2 buffer.
(§3) Add 25 μL/well 1.5% DMSO/AB1c buffer in each compound well to the compound concentration at 74 μM in 8.8% DMSO/AB1c buffer or in the 2 μL DMSO CONTROL wells (BLANK, TOTAL and POSITIVE wells) in the compound plate. Transfer 3 μL/well of above solution (solution 1,2,3) to an empty assay plate (BD1536-well plate) as follows: TOTAL and cpd wells: Solution 1 (Biotin-IWR2): BLANK wells: Solution 2 (No Biotin-IWR2): POSITIVE CONTROL wells: Solution 3 (Biotin-IWR2XAV939) Transfer 3 μL/well of the above diluted compound solutions or compound dilution buffer to the above assay plate. Add 2 μL/well of 300 nM TNKS stock solution (4) to every well in the above assay plate. Centrifuge the assay plate at 2100 rpm for 2 min. Incubate the assay plate at 26° C. for 30 minutes. Add 2 μL/well 3.5 nMEu/50 nM APC solution (5) to every well in the above assay plate. Centrifuge the assay plate at 2100 rpm for 2 min. Incubate the assay plate at 26° C. for 60 min. Read the assay plate immediately at excitation wavelength of 330 nm and emission wavelength of 615 and 665 nM in time resolved fluorescence mode.
. Representative compound data for the PARP1 assay is in TABLE 2 (below) Values are in μM.

[2] = target: T2, Tankyrase 1 (TNKS1) (Homo sapiens, UniProt O95271); assay: μHTS-TNKS-IWR2 TR-FRET Binding Assay (Example 71), TNKS1
T2 construct: His6-TNKS1, MW=28.2 KDa (construct: 1088-1327, 1266M)
Procedure: as §1, §2
as §3, with “Transfer” for “Add 25 μL/well 1.5% DMSO/AB1c buffer in each compound well to the compound concentration at 74 μM in 8.8% DMSO/AB1c buffer or in the 2 μL DMSO CONTROL wells (BLANK, TOTAL and POSITIVE wells) in the compound plate. Transfer”, “min.” for “min. Read the assay plate immediately at excitation wavelength of 330 nm and emission wavelength of 615 and 665 nM in time resolved fluorescence mode.”

[3] = target: T3, tankyrase 2 (His6-TNKS2) (Homo sapiens, UniProt Q9H2K2); assay: μHTS-TNKS-IWR2 TR-FRET Binding Assay (Example 71), TNKS2; settings: footnote 1: Tankyrase 1 and 2 inhibition assay in Example 71 (TR-FRET)
T3 construct: His6-tankyrase 2 (construct: 934-1166) (His6-TNKS2)
Procedure: as §1
Biotin-4-((1S,2R,6S,7R)-3,5-Dioxo-4-aza-tricyclo[5.2.1.0*2,6*]dec-8-en-4-yl)-N-(4-methyl-quinolin-8-yl)-benzamide (Biotin-IWR2): 10 mM Biotin-IWR2 stock in DMSO, stored at −20° C. Positive control: 10 mM 2-(4-Trifluoromethyl-phenyl)-3,5,7,8-tetrahydro-thiopyrano[4,3-d]pyrimidin-4-one (XAV939) in DMSO, stored at −20° C.
as §2
as §3, with “Transfer” for “Add 25 μL/well 1.5% DMSO/AB1c buffer in each compound well to the compound concentration at 74 μM in 8.8% DMSO/AB1c buffer or in the 2 μL DMSO CONTROL wells (BLANK, TOTAL and POSITIVE wells) in the compound plate. Transfer”, “min.” for “min. Read the assay plate immediately at excitation wavelength of 330 nm and emission wavelength of 615 and 665 nM in time resolved fluorescence mode.”

T3 sequence (Q9H2K2 934-1166): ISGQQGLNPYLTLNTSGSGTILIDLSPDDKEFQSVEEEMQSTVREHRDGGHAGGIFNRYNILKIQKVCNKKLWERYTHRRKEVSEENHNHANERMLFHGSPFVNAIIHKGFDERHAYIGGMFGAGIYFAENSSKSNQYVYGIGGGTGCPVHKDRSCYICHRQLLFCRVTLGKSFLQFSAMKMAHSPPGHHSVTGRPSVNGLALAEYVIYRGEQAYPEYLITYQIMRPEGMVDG
T2 sequence (O95271 1088-1327): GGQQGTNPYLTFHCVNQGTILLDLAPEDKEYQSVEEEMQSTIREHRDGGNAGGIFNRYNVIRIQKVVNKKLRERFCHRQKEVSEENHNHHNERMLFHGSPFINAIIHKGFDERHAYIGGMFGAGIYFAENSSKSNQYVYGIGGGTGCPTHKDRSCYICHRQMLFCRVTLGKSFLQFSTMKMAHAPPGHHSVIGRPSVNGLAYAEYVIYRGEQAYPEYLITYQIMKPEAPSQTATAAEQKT
T1 sequence (P09874 whole entry, species assumed): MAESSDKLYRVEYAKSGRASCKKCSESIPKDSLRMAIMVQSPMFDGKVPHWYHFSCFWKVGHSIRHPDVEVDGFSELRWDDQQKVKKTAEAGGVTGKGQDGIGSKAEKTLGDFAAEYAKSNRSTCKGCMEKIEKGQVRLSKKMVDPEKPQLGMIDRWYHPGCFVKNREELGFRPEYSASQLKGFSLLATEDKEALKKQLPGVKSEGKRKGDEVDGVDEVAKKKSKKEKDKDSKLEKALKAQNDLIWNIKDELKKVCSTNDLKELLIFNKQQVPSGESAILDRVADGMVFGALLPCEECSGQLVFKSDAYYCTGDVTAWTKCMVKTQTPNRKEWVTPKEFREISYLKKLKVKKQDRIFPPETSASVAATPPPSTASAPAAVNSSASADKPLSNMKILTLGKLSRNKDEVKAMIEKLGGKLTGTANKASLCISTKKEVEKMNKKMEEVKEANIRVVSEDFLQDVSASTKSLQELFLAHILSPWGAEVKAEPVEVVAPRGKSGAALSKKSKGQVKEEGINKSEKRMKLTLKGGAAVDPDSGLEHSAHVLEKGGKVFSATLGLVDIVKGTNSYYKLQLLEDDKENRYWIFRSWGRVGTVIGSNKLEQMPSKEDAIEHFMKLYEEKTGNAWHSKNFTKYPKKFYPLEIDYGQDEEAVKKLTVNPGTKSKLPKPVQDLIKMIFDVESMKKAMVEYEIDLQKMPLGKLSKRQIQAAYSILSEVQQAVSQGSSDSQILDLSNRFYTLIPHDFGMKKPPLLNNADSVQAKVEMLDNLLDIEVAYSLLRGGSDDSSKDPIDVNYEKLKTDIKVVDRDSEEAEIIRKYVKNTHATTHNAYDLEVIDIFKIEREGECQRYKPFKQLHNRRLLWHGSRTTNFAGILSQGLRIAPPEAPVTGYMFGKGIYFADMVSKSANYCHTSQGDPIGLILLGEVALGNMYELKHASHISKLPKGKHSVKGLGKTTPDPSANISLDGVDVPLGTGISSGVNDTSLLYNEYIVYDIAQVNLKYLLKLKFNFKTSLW

Row | IC50 [1] [nM] | IC50 [2] [nM] | IC50 [3] [nM] | Structure (SMILES)
1 | 67.7 | 25.5 | 27 | CC(=O)N1CCC(C2Cc3[nH]c(=O)c4ccccc4c3CO2)CC1 (racemic) [Compound I-25, rac-2-(1-Acetyl-piperidin-4-yl)-1,2,4,10-tetrahydro-3-oxa-10-aza-phenanthren-9-one]
2 | 98.7 | 48.2 | 55.4 | CS(=O)(=O)N1CCC(C2Cc3[nH]c(=O)c4ccccc4c3CO2)CC1 (racemic) [Compound I-26, rac-2-(1-Methanesulfonyl-piperidin-4-yl)-1,2,4,10-tetrahydro-3-oxa-10-aza-phenanthren-9-one]
3 | 197 | 39.1 | 53.5 | CC(C)C1Cc2[nH]c(=O)c3ccc(Cl)cc3c2CO1 (racemic) [Compound I-27, rac-6-Chloro-2-isopropyl-1,2,4,10-tetrahydro-3-oxa-10-aza-phenanthren-9-one]
4 | 1920 | 81.8 | 177 | CC(C)C1Cc2[nH]c(=O)c3ccsc3c2CO1 (racemic) [Compound I-28, rac-7-Isopropyl-5,6,7,9-tetrahydro-8-oxa-1-thia-5-aza-cyclopenta[a]naphthalen-4-one]
5 | 126 | 67.2 | 113 | CC(C)(COCc1ccccc1)C1Cc2[nH]c(=O)c3ccccc3c2CO1 (racemic) [Compound I-29, rac-2-(2-Benzyloxy-1,1-dimethyl-ethyl)-1,2,4,10-tetrahydro-3-oxa-10-aza-phenanthren-9-one]
6 | 1790 | 70.8 | 89.1 | O=c1[nH]c2c(c3cnccc13)COC(C1CCCC1)C2 (racemic) [Compound I-31, rac-7-Cyclopentyl-5,7,8,9-tetrahydro-6-oxa-3,9-diaza-phenanthren-10-one]
7 | 81.8 | 30.8 | 40.5 | CC(C)OC(=O)N1CCC(C2Cc3[nH]c(=O)c4ccccc4c3CO2)CC1 (racemic) [Compound I-32, rac-4-(9-Oxo-1,4,9,10-tetrahydro-2H-3-oxa-10-aza-phenanthren-2-yl)-piperidine-1-carboxylic acid isopropyl ester]
8 | 94.8 | 36.5 | 52 | O=C(C1CC1)N1CCC(C2Cc3[nH]c(=O)c4ccccc4c3CO2)CC1 (racemic) [Compound I-33, rac-2-(1-Cyclopropanecarbonyl-piperidin-4-yl)-1,2,4,10-tetrahydro-3-oxa-10-aza-phenanthren-9-one]
9 | 3470 | 84.9 | 183 | CC(C)(C)C1Cc2[nH]c(=O)c3ccncc3c2CO1 (racemic) [Compound I-34, rac-7-tert-Butyl-4a,5,7,8,9,10a-hexahydro-6-oxa-3,9-diaza-phenanthren-10-one]
10 | 18700 | 91 | 196 | CC(C)C1Cc2[nH]c(=O)c3ccc(C4CC4)cc3c2CO1 (racemic) [Compound I-38, rac-6-Cyclopropyl-2-isopropyl-1,2,4,10-tetrahydro-3-oxa-10-aza-phenanthren-9-one]
11 | 222 | 32.6 | 35.5 | CC(C)(C)C1Cc2[nH]c(=O)c3sccc3c2CO1 (racemic) [Compound I-40, rac-7-tert-Butyl-5,6,7,9-tetrahydro-8-oxa-3-thia-5-aza-cyclopenta[a]naphthalen-4-one]
12 | 46.9 | 21.2 | 26 | Cc1cccc2c(=O)[nH]c3c(c12)COC(C(C)(C)C)C3 (racemic) [Compound I-41, rac-2-tert-Butyl-5-methyl-1,2,4,10-tetrahydro-3-oxa-10-aza-phenanthren-9-one]
13 | 2100 | 60.9 | 87.7 | Cn1ncc2c(=O)[nH]c3c(c21)COC(C(C)(C)C)C3 (racemic) [Compound I-42, rac-7-tert-Butyl-1-methyl-5,6,7,9-tetrahydro-1H-8-oxa-1,2,5-triaza-cyclopenta[a]naphthalen-4-one]
14 | 876 | 43.9 | 49 | CC(C)(C)C1Cc2[nH]c(=O)c3cnccc3c2CO1 (racemic) [Compound I-43, rac-7-tert-Butyl-5,7,8,9-tetrahydro-6-oxa-2,9-diaza-phenanthren-10-one]
15 | 87.1 | 33.2 | 44.3 | CC1(C(=O)N2CCC(C3Cc4[nH]c(=O)c5ccccc5c4CO3)CC2)CC1 (racemic) [Compound I-46, rac-2-[1-(1-Methyl-cyclopropanecarbonyl)-piperidin-4-yl]-1,2,4,10-tetrahydro-3-oxa-10-aza-phenanthren-9-one]
16 | 63.6 | 32.4 | 36.8 | O=c1[nH]c2c(c3ccccc13)COC(C1CCOCC1)C2 (racemic) [Compound I-47, rac-2-(Tetrahydro-pyran-4-yl)-1,2,4,10-tetrahydro-3-oxa-10-aza-phenanthren-9-one]
17 | 437 | 34.6 | 55.4 | CC(C)(C)C1Cc2[nH]c(=O)c3cccnc3c2CO1 (racemic) [Compound I-48, rac-2-tert-Butyl-1,2,4,10-tetrahydro-3-oxa-5,10-diaza-phenanthren-9-one]
18 | 3050 | 514 | 77.5 | Cc1ccc2c(=O)[nH]c3c(c2n1)COC(C(C)(C)C)C3 (racemic) [Compound I-49, rac-2-tert-Butyl-6-methyl-1,2,4,10-tetrahydro-3-oxa-5,10-diaza-phenanthren-9-one]
19 | 104 | 35.6 | 44.2 | O=C(C1CCOCC1)N1CCC(C2Cc3[nH]c(=O)c4ccccc4c3CO2)CC1 (racemic) [Compound I-50, rac-2-[1-(Tetrahydro-pyran-4-carbonyl)-piperidin-4-yl]-1,2,4,10-tetrahydro-3-oxa-10-aza-phenanthren-9-one]
20 | > 50000 | 1100 | 13900 | CC(C)(O)c1ccc2c(=O)[nH]c3c(c2c1)COC(C(C)(C)C)C3 (racemic) [Compound I-53, rac-2-tert-Butyl-6-(1-hydroxy-1-methyl-ethyl)-1,2,4,10-tetrahydro-3-oxa-10-aza-phenanthren-9-one]
21 | > 50000 | 133 | 1500 | CC(C)(C)C1Cc2[nH]c(=O)c3ccc(C#N)cc3c2CO1 (racemic) [Compound I-56, rac-2-tert-Butyl-9-oxo-1,4,9,10-tetrahydro-2H-3-oxa-10-aza-phenanthrene-6-carbonitrile]
